Results: patent publication US9637451B2, “Indole compound” (ASTELLAS PHARMA INC., priority 2014, dated 2017)

Experiments:
human MT1 receptor = target: T1, human MT1 receptor (Homo sapiens, UniProt P48039); assay: Activation of human MT1 receptor in receptor-expressing cells, intracellular Ca2+ by FLIPR; assay type: cell-based
T1 construct: expressed in transfected cells

human MT2 receptor = target: T2, human MT2 receptor (Homo sapiens, UniProt P49286); assay: Activation of human MT2 receptor in receptor-expressing cells, intracellular Ca2+ by FLIPR; assay type: cell-based
T2 construct: expressed in transfected cells
T2 sequence (P49286 1-362): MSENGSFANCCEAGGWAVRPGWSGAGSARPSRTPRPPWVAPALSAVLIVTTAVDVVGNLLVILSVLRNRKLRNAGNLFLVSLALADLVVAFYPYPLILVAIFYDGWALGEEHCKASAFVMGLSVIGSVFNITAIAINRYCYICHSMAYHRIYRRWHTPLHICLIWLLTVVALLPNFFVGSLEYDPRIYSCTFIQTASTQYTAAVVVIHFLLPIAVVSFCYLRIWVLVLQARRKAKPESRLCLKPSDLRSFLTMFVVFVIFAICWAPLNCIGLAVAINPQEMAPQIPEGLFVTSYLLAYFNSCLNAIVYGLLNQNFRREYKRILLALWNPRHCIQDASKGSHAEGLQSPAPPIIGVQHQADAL

SD female rats = assay: Effect of test compound on urethral pressure in anesthetized rats; assay type: in vivo, rat; settings: dose of 0.01 mg/kg
Source text: SD female rats were anesthetized with urethane and subjected to laparotomy. Then, the bladder apex was incised and a catheter was inserted from the bladder apex. Further, the catheter tip was ligated and fixed to be located in the proximal urethra portion. The catheter was connected to a pressure transducer and an infusion pump. Further, a catheter for administrating the compound was fitted into the femoral vein. Physiological saline was continuously infused into the urethra and the perfusion pressure in the urethra was measured. After the urethral pressure was stabilized, the test compound that had been dissolved in physiological saline, or physiological saline including 5% dimethylacetamide and 0.5% Cremophor was administered intravenously at 0.01 mg/kg or 0.1 mg/kg, and a change in urethral pressures was measured.
Further, the results of administering an active metabolite of midodrine (ST-1059: purchased from CHEMIZON) (J. Urology, 118, 980-982 (1977)) which is an α1 adrenoceptor agonist and is confirmed to have a clinical effect on stress urinary incontinence at doses, 0.01 mg/kg and, 0.1 mg/kg in rats, presumed to correspond to the clinical doses are referenced and shown in the Tables below.
The increment value in the urethral pressures of ramelteon and the Example compounds of the present invention at the time of administration are shown in Table 3. Ex represents Example No. of the test compound and N.T represents Not Tested.

[1] = maximum reaction by ramelteon taken as 100%

T1 sequence (P48039 whole entry): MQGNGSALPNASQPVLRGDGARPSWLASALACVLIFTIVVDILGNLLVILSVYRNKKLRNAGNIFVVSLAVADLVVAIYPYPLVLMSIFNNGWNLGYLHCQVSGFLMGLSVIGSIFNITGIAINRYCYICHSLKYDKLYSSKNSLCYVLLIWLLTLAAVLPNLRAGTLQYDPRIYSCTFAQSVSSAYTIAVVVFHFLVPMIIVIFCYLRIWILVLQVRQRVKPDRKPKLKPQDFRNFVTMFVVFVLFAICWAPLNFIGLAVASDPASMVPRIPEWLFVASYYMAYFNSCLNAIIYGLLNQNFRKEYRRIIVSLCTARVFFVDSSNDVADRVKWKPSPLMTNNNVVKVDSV

EC50 (human MT1 receptor; HEK293EBNA1 cells stably expressing human MT1 and Gq/i chimeric G protein, Ca2+ FLIPR): 7.5 nM
Emax (human MT1 receptor; [1]): 103%
EC50 (human MT2 receptor; HEK293 cells stably expressing human MT2 and Gq/i chimeric G protein, Ca2+ FLIPR): 10 nM
Emax (human MT2 receptor; [1]): 119%
SMILES: CC(=O)NCCc1c[nH]c2cc(F)c(OCCOc3ccn(C)n3)cc12 [Example 6, N-[2-(6-fluoro-5-{2-[(1-methyl-1H-pyrazol-3-yl)oxy]ethoxy}-1H-indol-3-yl)ethyl]acetamide]
urethral pressure increasing action (SD female rats): good urethral pressure increasing action
